From PubChem BioAssay AID602464 (Sanford-Burnham Center for Chemical Genomics, 2012)
Calls of active or inactive are those of the source. No stated cut-off is given here; in the data, active means IC50 below about 20 µM; inactive means the rest.

Tested on: Gli-responsive luciferase reporter cells, SUFU pathway antagonism
Assay: Gli-SUFU pathway antagonists, dose response, cell-based, luciferase luminescence, uHTS hits (AID 602464)

Row | Compound | IC50
1 | COCCn1c(CN2CCC(Cc3ccccc3)CC2)nc2c1c(=O)n(C)c(=O)n2C | 4.08 µM
2 | Cc1nc2ncccn2c1-c1csc(Nc2ccc(O)cc2)n1 | 4.37 µM
3 | COc1ccc(OC)c(Cc2cnc3nc(N)nc(N)c3c2C)c1 | 2.8 µM
4 | CC(=O)c1ccc(-n2cc(-c3ccc(C(C)(C)C)cc3)[n+]3c2SCCC3)cc1 | 9.87 µM
5 | Cc1nc2ccccc2n1CC(=O)NC(C)C1CC2CCC1C2 (configuration not stated) | 7.93 µM
6 | FC(F)Oc1ccc(-c2c[n+]3c(n2-c2ccccc2)CCCCC3)cc1 | 7.36 µM
7 | COCCNc1nc2c(c(=O)n(C)c(=O)n2C)n1Cc1cccc(C(F)(F)F)c1 | 3.55 µM
8 | O=C(N[C@@H]1C/C=C\C[C@H](CC(=O)N(CCO)Cc2ccccc2)C(=O)N[C@@H](Cc2c[nH]c3ccccc23)COC1=O)OCC1c2ccccc2-c2ccccc21 | 10.9 µM
9 | CCCCCCCOc1ccc(OC(=O)c2cccnc2)cc1 | 1.06 µM
10 | CCn1c(=NC(=O)CS(=O)(=O)c2ccccc2)sc2cccc(OC)c21 | 3.95 µM
11 | O=C(N[C@@H]1C/C=C\C[C@H](CC(=O)N(CCO)Cc2ccccc2)C(=O)NC[C@@H](c2ccccc2)OC1=O)OCC1c2ccccc2-c2ccccc21 | 6.27 µM
12 | O=C(c1cccc(S(=O)(=O)N2CCN(c3ccccc3)CC2)c1)N1CCCC(C(F)(F)F)C1 (configuration not stated) | 8.01 µM
13 | C/C(=N\Nc1ccc(Cl)nn1)c1ccccc1O | > 20 µM (inactive)
14 | CCOc1ccc(OCc2ccc(C(=O)NN=Cc3ccc[nH]3)cc2)cc1 | 2.44 µM
15 | CCCCCn1c(=N)n(CC(O)COc2ccccc2OC)c2ccccc21 (configuration not stated) | 8.43 µM
16 | C[n+]1c2n(c3ccccc31)N=C(c1ccccc1)CS2 | 6.49 µM
17 | CCOc1ccc(-n2c(-c3ccc(Cl)cc3)c[n+]3c2SCC3)cc1 | 3.49 µM
18 | C(#Cc1ccccc1)C[N+]1(CC#Cc2cccc3ccccc23)CCCC1 | 3.6 µM
19 | COCCNc1nc2c(c(=O)n(C)c(=O)n2C)n1Cc1cccc(C)c1 | 7.26 µM
20 | Cc1ccc(OCCN2CCN(c3ncnc4sc(C)c(C)c34)CC2)cc1 | 2.9 µM
21 | COc1ccc(Nc2nc(N3CCOCC3)nc(N3CCOCC3)n2)c(OC)c1 | > 20 µM (inactive)

Row | Compound | IC50
22 | CC(C)Cn1c(N)c(C(=O)COC(=O)C2Cc3ccccc3CN2S(C)(=O)=O)c(=O)n(C)c1=O (configuration not stated) | > 20 µM (inactive)
23 | COc1ccc(CNc2ncnc3c2[nH]c2ccccc23)cc1 | 2.79 µM
24 | CCCOc1ccc(Br)cc1CSC(=N)N | 9.84 µM
25 | O=C(Nc1ccccc1)C1=C[C@H](C2CCCCC2)C[C@H](OCCCCO)O1 | 0.666 µM
26 | O=C(COC(=O)c1ccc2[nH]c3c(c2c1)CCCC3)Nc1ccccc1Cl | > 20 µM (inactive)
27 | CC(C)C(=O)N1CCN(c2ccccc2NC(=O)COc2ccccc2)CC1 | > 20 µM (inactive)
28 | Fc1ccc(-n2nnnc2-c2cnc(-c3cccs3)nc2C(F)(F)F)cc1 | 6.43 µM
29 | Cc1sc2ncnc(NCC(C)(C)N3CCOCC3)c2c1C | 3.85 µM
30 | CC[N+](C)(CC)CCC(c1ccccc1)C1CCCCC1 (configuration not stated) | 13.1 µM
31 | Nc1nc2ccccc2n1/N=C/c1ccc([N+](=O)[O-])s1 | 6.42 µM
32 | CCn1c(=NC(=O)CCS(=O)(=O)c2ccccc2)sc2cccc(OC)c21 | 3.11 µM
33 | CCC(C)NS(=O)(=O)c1ccc(S(=O)(=O)N2CCCC3(CCCCC3)C2)cc1 (configuration not stated) | > 20 µM (inactive)
34 | CCOC(=O)c1ccc(NC(=O)Cn2cnc3cc(C)c(C)cc32)cc1 | 2.75 µM
35 | O=C(Nc1cc2c3c(c1)C1CCCC1CN3CC1CCCC21)c1ccc([N+](=O)[O-])cc1 (configuration not stated) | 5.09 µM
36 | O=C(c1ccc(Cl)cc1)N1CCN(c2ccnc3cc(Cl)ccc23)CC1 | 3.01 µM
37 | COc1ccc(CNc2cc(C)nc3ncnn23)c(OC)c1 | 10.6 µM
38 | CCn1c(/C=C/Nc2ccccc2)[n+](CC)c2cc(Cl)c(Cl)cc21 | 7.87 µM
39 | CC(Sc1nc2ccccc2c(=O)n1C)C(=O)N(C)C1CCCCC1 (configuration not stated) | 3.99 µM
40 | CCOC(=O)c1c(NC(=O)C(=O)N/N=C/c2ccccc2O)sc2c1CCCCC2 | 4.39 µM
41 | CCOC(=O)c1sc2nc(CC(=O)OC)nc(NCc3ccc(Cl)cc3)c2c1C | 9.23 µM
42 | CCOC(CN=c1nc(N(C)C)ss1)OCC | > 20 µM (inactive)
